The source of these data is publication PMC7559897, “Designed Antimicrobial Peptides Against Trauma-Related Cutaneous Invasive Fungal Wound Infections” (Journal of Fungi, 2020).

Values after ≈ are worked out from the molar mass of the structure shown. Bridge positions count the residues as written; N and C are the ends. Peptide text beside a SMILES is read from it.

One series deals with Candida biofilm. To be noted: cited from earlier work. An excerpt: (§1) Early and empiric treatment is required due to the rapid emergence of both bacterial and fungal resistance and resilience due to biofilm formation multi-drug resistant organisms and their associated biofilms play a significant role in the pathogenicity and chronicity of wound infections. The resistance of bacteria and fungi residing in biofilms is due to the biofilm matrix acting as a fortified barrier and the presence of slow-growing microbes with poor metabolic activity, known as persisters. The dAMPs direct perturbation of cellular membranes is effective at eradicating biofilms. RP55 ...

Series [1] relates to preformed and mature MRSA biofilm. To be noted: cited from earlier work.
Description: as §1

In the next series the test system is MRSA ATCC 33592. Format: cell-based, Staphylococcus aureus. To be noted: cation adjusted Mueller-Hinton broth, ~10^6 CFU/mL, 24 h, 37 °C, OD600 <0.1 in at least 3 of 4 wells, 2-128 μg/mL; shaded values previously reported ref 18. The method in brief:
(§2)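 Overnight TSB cultures (37 °C) diluted to approx. 10^6 CFU/mL, 2X CAMHB; fungal isolate in potato dextrose broth. dAMP 2-fold series 2–128 μg/mL, n=4. 24 h, 37 °C, A600; MIC: ≥3/4 wells OD <0.1.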

A further series deals with MRSA 6313. Format: cell-based, Staphylococcus aureus. To be noted: cation adjusted Mueller-Hinton broth, ~10^6 CFU/mL, 24 h, 37 °C, OD600 <0.1 in at least 3 of 4 wells, 2-128 μg/mL; shaded values previously reported ref 18. The gist of the method:
as §2

In the next series the test system is S. aureus 6061. Format: cell-based, Staphylococcus aureus. To be noted: cation adjusted Mueller-Hinton broth, ~10^6 CFU/mL, 24 h, 37 °C, OD600 <0.1 in at least 3 of 4 wells, 2-128 μg/mL; shaded values previously reported ref 18. The method in brief:
as §2

The next series concerns MRSA 6381. Format: cell-based, Staphylococcus aureus. To be noted: cation adjusted Mueller-Hinton broth, ~10^6 CFU/mL, 24 h, 37 °C, OD600 <0.1 in at least 3 of 4 wells, 2-128 μg/mL; shaded values previously reported ref 18. The gist of the method:
as §2

For a further series, the system named is S. aureus B-767. Format: cell-based, Staphylococcus aureus. The conditions noted are these: cation adjusted Mueller-Hinton broth, ~10^6 CFU/mL, 24 h, 37 °C, OD600 <0.1 in at least 3 of 4 wells, 2-128 μg/mL; shaded values previously reported ref 18. The gist of the method: as §2
For a further series, the system named is L929 fibroblast cells. The series is described as follows: Bioluminescent mammalian cytotoxicity assay. Format: cell-based, murine. The conditions noted are these: L929 fibroblasts, up to 64 μg/mL, 8 h of exposure, bioluminescence. Here is the method: Real-time killing of bacterial cells, P. aeruginosa or S. aureus, and mammalian cytotoxicity to assess dAMP off-target toxicity was evaluated using bioluminescent cells. The L929 fibroblast cells (ATCC, Manassas, VA, USA) were made bioluminescent by transfection with a luciferase gene. Cells (1 × 10^4 cells, 100 μL) were plated in 96-well black-walled plates and the candidate dAMPs were 2-fold serially diluted from specified concentrations in growth medium supplemented with 150 μg/mL D-luciferin. Each concentration was performed in triplicate, with the final volume being 200 μL. Imaging was performed at select times after the addition of the dAMP, and compared to concurrently run vehicle-control, using an IVIS Lumina imaging system (Caliper Life Sciences, Inc., Hopkinton, MA, USA). For imaging, the 96-well plate was positioned on the stage (12.5-cm field of view), with an open emission filter, binning of 4, and f-stop 1 and a 1-min exposure time. Monitoring bioluminescence allows assessment of the kinetics of cellular viability as there is a tight correlation between the bioluminescent signal and cell viability. […]
Figure 2 RP504, RP556 and RP557 induce limited mammalian cell toxicity. […] Cells were plated at 1×10^4 cells/well, allowed to adhere overnight and the specific dAMP added, and cytotoxicity evaluated through 8 h. […]

The test system of series [2] is P. aeruginosa 19660 (Xen5 luciferase). Nature of the series: Bioluminescent time-kill assay. Format: cell-based, Pseudomonas aeruginosa. The conditions noted are these: 8 μg/mL; RP553 at 60 min; bioluminescence. The method in brief:
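Luciferase-expressing bacteria exposed to 2-fold serial dilutions of peptide in growth medium with 150 μg/mL D-luciferin, triplicate. Bioluminescence imaged at select times versus concurrent vehicle control as a real-time viability read-out.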

Series [3] relates to vulvovaginal candidiasis infection. The conditions noted are these: cited from earlier work. The text has this: The dAMPs RP504, RP554 and RP557 were thus tested for their ability to treat a rodent vulvovaginal candidiasis infection. […] A daily dose with a 2% concentration lowered the CFU/sample by more than 4 logs compared to the con ...

Consider `CC[C@H](C)[C@@H]1NC(=O)CNC(=O)[C@H](CCCCN)NC(=O)[C@H](Cc2ccc(O)cc2)NC(=O)[C@@H]2CSSC[C@H](NC1=O)C(=O)N[C@@H](Cc1ccccc1)C(=O)N[C@@H](CCCCN)C(=O)N[C@@H](CCCCN)C(=O)N[C@H](C(=O)N[C@@H](CCCCN)C(N)=O)CSSC[C@H](NC(=O)[C@H](Cc1ccccc1)NC(=O)[C@@H](N)CCCNC(=N)N)C(=O)N[C@@H](Cc1c[nH]c3ccccc13)C(=O)N[C@@H](CCCCN)C(=O)N[C@@H](C(C)C)C(=O)N2` [RP557] (H-RFCWKVCYKGICFKKCK-NH2; disulfide 3-16, 7-12), for which the “disruption of Candida biofilm” value with Candida biofilm is listed as “completely disrupted”. For the same molecule, the “disruption of preformed and mature MRSA biofilm” value in [1] is listed as “completely disrupted”. The “MIC against MRSA ATCC 33592” value against MRSA ATCC 33592 came out at 4 µg/mL (≈ 1.87 µM). Besides, in the series on MRSA 6313, the “MIC against MRSA 6313” value turned out to be 4 µg/mL (≈ 1.87 µM). Besides, the “MIC against S. aureus 6061” value against S. aureus 6061 came out at 8 µg/mL (≈ 3.75 µM). In the series with MRSA 6381, the “MIC against MRSA 6381” value turned out to be 4 µg/mL (≈ 1.87 µM). In addition, the “MIC against S. aureus B-767” value with S. aureus B-767 stood at 4 µg/mL (≈ 1.87 µM). The “mammalian cell toxicity (in words)” value with L929 fibroblast cells is “Limited toxicity”. For the same molecule, the “P. aeruginosa killing (in words)” value in series [2] was “immediate eradication”. In addition, in series [3] (daily dose with a 2% concentration, dose-response protocol), the “lowering of CFU/sample compared to control samples” value is “more than 4 logs”. The “reduction of CFU/tissue sample” value in series [3] (rodent vulvovaginal candidiasis, after three days of daily treatment) is recorded as at least 2.5 logs.
